From ChEMBL document CHEMBL1909046, “DrugMatrix in vitro pharmacology data”
Where a SMILES comes first, the peptide text is derived from it. Bridges are numbered along the chain shown (N, C = ends). [ ]: non-standard residue; d: D form. The star is where a group is joined. Threoninol(2S,3R) = C[C@@H](O)[C@H](CO)N*

What was measured:
D(1A) dopamine receptor = D(1A) dopamine receptor (Homo sapiens, UniProt P21728); test: DRUGMATRIX: Dopamine D1 radioligand binding (ligand: [3H] SCH-23390); format: cell membranes, Membrane; details: cho; Not Active = under 50% inhibition at 10 µM
D(1A) dopamine receptor, sequence (P21728 whole entry): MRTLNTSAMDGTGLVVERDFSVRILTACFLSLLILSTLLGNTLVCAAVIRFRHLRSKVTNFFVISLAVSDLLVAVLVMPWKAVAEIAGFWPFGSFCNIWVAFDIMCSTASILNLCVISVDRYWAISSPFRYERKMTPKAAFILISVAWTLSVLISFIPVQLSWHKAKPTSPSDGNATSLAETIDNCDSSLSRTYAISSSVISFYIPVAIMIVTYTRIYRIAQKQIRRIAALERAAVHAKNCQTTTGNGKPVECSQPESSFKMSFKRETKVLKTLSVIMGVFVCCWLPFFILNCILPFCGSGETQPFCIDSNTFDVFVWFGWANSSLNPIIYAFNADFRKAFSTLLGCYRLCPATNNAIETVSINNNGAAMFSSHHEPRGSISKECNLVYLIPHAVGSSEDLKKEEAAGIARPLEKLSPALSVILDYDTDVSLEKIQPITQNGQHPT

D(4) dopamine receptor = target: T1, D(4) dopamine receptor (Homo sapiens, UniProt P21917); test: DRUGMATRIX: Dopamine D4.2 radioligand binding (ligand: [3H] Spiperone); format: cell membranes, Membrane; details: cho-k1; Not Active = under 50% inhibition at 10 µM
T1 sequence (P21917 whole entry): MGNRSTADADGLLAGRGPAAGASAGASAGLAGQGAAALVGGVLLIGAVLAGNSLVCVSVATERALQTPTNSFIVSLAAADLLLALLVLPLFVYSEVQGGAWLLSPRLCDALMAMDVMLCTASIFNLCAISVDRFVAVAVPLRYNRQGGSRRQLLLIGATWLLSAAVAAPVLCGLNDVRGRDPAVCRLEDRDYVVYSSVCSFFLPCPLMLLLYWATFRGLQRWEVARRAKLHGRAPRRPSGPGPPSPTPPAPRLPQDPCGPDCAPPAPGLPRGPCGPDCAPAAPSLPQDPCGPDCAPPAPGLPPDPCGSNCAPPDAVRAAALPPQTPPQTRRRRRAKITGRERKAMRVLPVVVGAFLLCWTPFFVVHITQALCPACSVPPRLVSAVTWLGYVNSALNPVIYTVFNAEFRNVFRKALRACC

[1] = target: 5-hydroxytryptamine receptor 6 (Homo sapiens, UniProt P50406); format: cell membranes, HeLa, Membrane; details: hela; also: in other assays of this panel Not Active means under 50% inhibition at 10 µM
5-hydroxytryptamine receptor 6, sequence (P50406 whole entry): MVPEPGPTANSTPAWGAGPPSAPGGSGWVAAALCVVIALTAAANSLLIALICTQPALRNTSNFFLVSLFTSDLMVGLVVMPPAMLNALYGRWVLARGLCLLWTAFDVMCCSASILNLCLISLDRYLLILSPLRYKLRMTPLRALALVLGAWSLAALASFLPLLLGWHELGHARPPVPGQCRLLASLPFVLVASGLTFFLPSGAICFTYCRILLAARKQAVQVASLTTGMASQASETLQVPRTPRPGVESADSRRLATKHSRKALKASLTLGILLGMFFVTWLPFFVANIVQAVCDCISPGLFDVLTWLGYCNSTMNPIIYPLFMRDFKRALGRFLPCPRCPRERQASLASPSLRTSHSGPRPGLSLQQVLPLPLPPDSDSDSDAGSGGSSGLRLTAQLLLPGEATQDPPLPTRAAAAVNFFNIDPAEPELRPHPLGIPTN

[2] = target: Beta-2 adrenergic receptor (Homo sapiens, UniProt P07550); test: DRUGMATRIX: Adrenergic beta2 radioligand binding (ligand: [3H] CGP-12177); format: cell membranes, Membrane; details: cho; Not Active = under 50% inhibition at 10 µM
Beta-2 adrenergic receptor, sequence (P07550 whole entry): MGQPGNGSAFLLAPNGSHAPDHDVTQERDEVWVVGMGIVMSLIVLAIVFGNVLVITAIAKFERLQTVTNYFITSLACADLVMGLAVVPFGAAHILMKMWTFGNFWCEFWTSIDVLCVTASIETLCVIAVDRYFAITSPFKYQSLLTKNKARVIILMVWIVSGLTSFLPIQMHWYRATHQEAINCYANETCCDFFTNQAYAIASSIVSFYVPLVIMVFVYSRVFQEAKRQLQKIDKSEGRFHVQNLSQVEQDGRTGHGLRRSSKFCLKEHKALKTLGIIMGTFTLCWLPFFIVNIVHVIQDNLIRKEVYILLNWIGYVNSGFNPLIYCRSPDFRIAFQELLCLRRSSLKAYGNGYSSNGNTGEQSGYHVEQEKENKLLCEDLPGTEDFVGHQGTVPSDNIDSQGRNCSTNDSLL

D(3) dopamine receptor = D(3) dopamine receptor (Homo sapiens, UniProt P35462); test: DRUGMATRIX: Dopamine D3 radioligand binding (ligand: [3H] Spiperone); format: cell membranes, CHO, Membrane
D(3) dopamine receptor, sequence (P35462 whole entry): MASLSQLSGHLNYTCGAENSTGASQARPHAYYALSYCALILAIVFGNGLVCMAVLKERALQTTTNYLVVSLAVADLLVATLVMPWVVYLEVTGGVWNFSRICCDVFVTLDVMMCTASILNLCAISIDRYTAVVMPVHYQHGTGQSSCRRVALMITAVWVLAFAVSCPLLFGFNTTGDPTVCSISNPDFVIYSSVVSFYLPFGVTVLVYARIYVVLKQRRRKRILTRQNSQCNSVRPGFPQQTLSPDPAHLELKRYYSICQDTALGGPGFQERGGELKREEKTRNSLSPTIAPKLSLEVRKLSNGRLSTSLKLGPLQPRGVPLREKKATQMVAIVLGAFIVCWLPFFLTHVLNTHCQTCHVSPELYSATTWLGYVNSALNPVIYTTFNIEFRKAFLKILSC

[3] = target: Beta-3 adrenergic receptor (Homo sapiens, UniProt P13945); test: DRUGMATRIX: Adrenergic beta3 radioligand binding (ligand: [125I] Cyanopindolol); format: cell membranes, Membrane; details: hek293; Not Active = under 50% inhibition at 10 µM
Beta-3 adrenergic receptor, sequence (P13945 whole entry): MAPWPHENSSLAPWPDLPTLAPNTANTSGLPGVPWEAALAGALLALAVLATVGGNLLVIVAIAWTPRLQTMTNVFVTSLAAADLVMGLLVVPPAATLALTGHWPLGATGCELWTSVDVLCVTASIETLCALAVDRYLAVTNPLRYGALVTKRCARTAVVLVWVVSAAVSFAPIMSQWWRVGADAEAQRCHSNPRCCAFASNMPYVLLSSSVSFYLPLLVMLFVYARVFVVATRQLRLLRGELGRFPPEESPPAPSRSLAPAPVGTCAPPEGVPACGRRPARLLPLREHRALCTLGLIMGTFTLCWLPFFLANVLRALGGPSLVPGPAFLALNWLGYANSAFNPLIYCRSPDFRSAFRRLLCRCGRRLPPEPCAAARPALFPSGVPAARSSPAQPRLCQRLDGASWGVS

Endothelin-1 receptor = target: T2, Endothelin-1 receptor (Homo sapiens, UniProt P25101); format: cell membranes, Membrane; details: cho-k1; also: in other assays of this panel Not Active means under 50% inhibition at 10 µM
T2 sequence (P25101 whole entry): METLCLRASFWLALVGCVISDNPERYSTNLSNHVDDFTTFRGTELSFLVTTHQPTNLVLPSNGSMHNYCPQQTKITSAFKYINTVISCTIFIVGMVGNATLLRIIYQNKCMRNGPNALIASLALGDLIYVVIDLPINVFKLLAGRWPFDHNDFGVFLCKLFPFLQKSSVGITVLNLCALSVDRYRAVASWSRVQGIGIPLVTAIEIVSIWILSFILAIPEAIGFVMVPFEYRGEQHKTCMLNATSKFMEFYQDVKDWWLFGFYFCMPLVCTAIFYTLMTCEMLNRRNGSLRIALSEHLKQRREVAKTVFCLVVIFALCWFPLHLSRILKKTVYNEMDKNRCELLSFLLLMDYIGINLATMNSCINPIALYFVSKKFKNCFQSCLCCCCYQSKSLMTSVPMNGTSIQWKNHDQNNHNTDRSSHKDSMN

Structure (SMILES)	IC50 (D(1A) dopamine receptor)	IC50 (D(4) dopamine receptor)	IC50 [1]	IC50 [2]	IC50 (D(3) dopamine receptor; cho)	IC50 [3]	IC50 (Endothelin-1 receptor)	Ki (D(1A) dopamine receptor)	Ki (D(4) dopamine receptor)	Ki [1]	Ki [2]	Ki (D(3) dopamine receptor; cho)	Ki [3]	Ki (Endothelin-1 receptor)	Ki (D(3) dopamine receptor) [nM]	IC50 (D(3) dopamine receptor; read-out: IC50) [nM]	Ki (D(3) dopamine receptor; read-out: Ki) [nM]
COc1ccccc1C(=O)N1CCC(Cc2ccccc2)CC1	Not Active	Not Active	Not Active	Not Active	Not Active	Not Active	Not Active										
Cc1ccccc1C(=O)N1CCC(Cc2ccccc2)CC1	Not Active	Not Active	Not Active	Not Active	Not Active	Not Active	Not Active										
O=C1CC[C@H](N2C(=O)c3ccccc3C2=O)C(=O)N1	Not Active	Not Active	Not Active	Not Active	Not Active	Not Active	Not Active										
N=C(Nc1ccccc1)Nc1ccccc1	Not Active	Not Active	Not Active	Not Active	Not Active	Not Active	Not Active										
C[C@@H](O)[C@H](CO)NC(=O)[C@@H]1CSSC[C@H](NC(=O)[C@H](N)Cc2ccccc2)C(=O)N[C@@H](Cc2ccccc2)C(=O)N[C@H](Cc2c[nH]c3ccccc23)C(=O)N[C@@H](CCCCN)C(=O)N[C@@H]([C@@H](C)O)C(=O)N1 (H-[dF]CF[dW]KTC-{Threoninol(2S,3R)}; disulfide 2-7)	Not Active	Not Active	Not Active	Not Active	Not Active	Not Active	Not Active										
S=C=Nc1cccc2ccccc12 [1-NAPHTHYLISOTHIOCYANATE]		Not Active	Not Active	Not Active	Not Active	Not Active	Not Active										
C[C@](O)(CS(=O)(=O)c1ccc(F)cc1)C(=O)Nc1ccc(C#N)c(C(F)(F)F)c1 [(R)-BICALUTAMIDE]	Not Active	Not Active	Not Active	Not Active	Not Active	Not Active	Not Active										
CCCC(=O)Nc1ccc(OCC(O)CNC(C)C)c(C(C)=O)c1 (stereo unspecified) [ACEBUTOLOL]	Not Active	Not Active	Not Active		Not Active	Not Active	Not Active										
CC(=O)Nc1ccc(O)cc1 [ACETAMINOPHEN]	Not Active	Not Active	Not Active	Not Active	Not Active	Not Active	Not Active										
COc1cc2c(c3oc(=O)c4c(c13)CCC4=O)[C@@H]1C=CO[C@@H]1O2 [AFLATOXIN]	Not Active	Not Active	Not Active	Not Active	Not Active	Not Active	Not Active	Not Active	Not Active	Not Active	Not Active	Not Active	Not Active	Not Active			
N=C(N)NC(=O)c1nc(Cl)c(N)nc1N [AMILORIDE]	Not Active	Not Active	Not Active	Not Active	Not Active	Not Active	Not Active										
Cc1cc(=O)n(-c2ccccc2)n1C [ANTIPYRINE]	Not Active	Not Active	Not Active	Not Active	Not Active	Not Active	Not Active										
CN1C(=O)COc2c(C(=O)NC3CN4CCC3CC4)cc(Cl)cc21 (stereo unspecified) [AZASETRON]	Not Active	Not Active	Not Active	Not Active	Not Active	Not Active	Not Active										
C[C@H]1C[C@H]2[C@@H]3CCC4=CC(=O)C=C[C@]4(C)[C@@]3(Cl)[C@@H](O)C[C@]2(C)[C@@]1(O)C(=O)CO [BECLOMETHASONE]	Not Active	Not Active	Not Active	Not Active	Not Active	Not Active	Not Active										
CCOC(=O)[C@H](CCc1ccccc1)N[C@H]1CCc2ccccc2N(CC(=O)O)C1=O [BENAZEPRIL]	Not Active	Not Active	Not Active	Not Active	Not Active	Not Active	Not Active										
Nc1c(CC(=O)O)cccc1C(=O)c1ccc(Br)cc1 [BROMFENAC]	Not Active	Not Active	Not Active	Not Active	Not Active	Not Active	Not Active										
CCCCN1CCCCC1C(=O)Nc1c(C)cccc1C.Cl (stereo unspecified) [BUPIVACAINE HYDROCHLORIDE]	Not Active	Not Active	Not Active	Not Active	Not Active	Not Active	Not Active										
O=C1CC2(CCCC2)CC(=O)N1CCCCN1CCN(c2ncccn2)CC1 [BUSPIRONE]	Not Active	Not Active	Not Active	Not Active		Not Active	Not Active								15	44	
C[C@@]12C(=O)OC(=O)[C@]1(C)[C@H]1CC[C@@H]2O1 [CANTHARIDIN]	Not Active	Not Active	Not Active	Not Active	Not Active	Not Active	Not Active										
O=NN(CCCl)C(=O)NCCCl [CARMUSTINE]	Not Active	Not Active	Not Active	Not Active	Not Active	Not Active	Not Active										
CC1=C(C(=O)O)N2C(=O)[C@@H](NC(=O)[C@H](N)c3ccccc3)[C@H]2SC1 [CEPHALEXIN ANHYDROUS]	Not Active	Not Active	Not Active	Not Active	Not Active	Not Active	Not Active										
O=C(N[C@H](CO)[C@H](O)c1ccc([N+](=O)[O-])cc1)C(Cl)Cl [CHLORAMPHENICOL]	Not Active	Not Active	Not Active	Not Active	Not Active	Not Active	Not Active										
ClC(Cl)Cl [CHLOROFORM]	Not Active	Not Active	Not Active	Not Active	Not Active	Not Active	Not Active										
C=C1CC[C@H](O)C/C1=C/C=C1\CCC[C@]2(C)[C@@H]([C@H](C)CCCC(C)C)CC[C@@H]12 [CHOLECALCIFEROL]	Not Active	Not Active	Not Active	Not Active	Not Active	Not Active	Not Active										
C[N+](C)(C)CCO.[Cl-] [CHOLINE CHLORIDE]	Not Active	Not Active	Not Active	Not Active	Not Active	Not Active	Not Active										
CCOC(=O)C(C)(C)Oc1ccc(Cl)cc1 [CLOFIBRATE]	Not Active	Not Active	Not Active	Not Active	Not Active	Not Active	Not Active										
CC(=O)OCC(=O)[C@@]1(O)CC[C@H]2[C@@H]3CCC4=CC(=O)CC[C@]4(C)[C@H]3C(=O)C[C@@]21C [CORTISONE ACETATE]	Not Active	Not Active	Not Active	Not Active	Not Active	Not Active	Not Active										
O=c1ccc2ccccc2o1 [COUMARIN]	Not Active	Not Active	Not Active	Not Active	Not Active	Not Active	Not Active										
C[C@@H]1C[C@@H]([C@H](O)CC2CC(=O)NC(=O)C2)C(=O)[C@@H](C)C1 [CYCLOHEXIMIDE]	Not Active	Not Active	Not Active	Not Active	Not Active	Not Active	Not Active										
CN(C)c1ccc(C(=C2C=CC(=[N+](C)C)C=C2)c2ccc(N(C)C)cc2)cc1.[Cl-] [GENTIAN VIOLET]		Not Active	Not Active	Not Active		Not Active	Not Active									831	282
